From US20140314857A1, “FORMULATIONS FOR ENHANCED BIOAVAILABILITY OF ZANAMIVIR” (priority 2012, published 2014)

Test system: Caco-2 cell monolayers
Assay: Initial screening of permeability enhancers with peramivir across Caco-2 cell monolayers
Settings: with glycerol or Capmul MCM L8 as enhancer; results not shown

Question: For `CCC(CC)[C@H](NC(C)=O)[C@@H]1[C@H](O)[C@@H](C(=O)O)C[C@H]1N=C(N)N` [peramivir], which “drug transport across Caco-2 cell monolayers” value is on record?
Answer: Its value is “substantially increased drug transport”.
